Reference: US9562031B1, “Phenethyldihydrobenzodioxolones and methods of use” (Sequoia Sciences, Inc., priority 2015, dated 2017)
pIC50: −log10 of the molar value.

Assays:
NCI/ADR-RES cells = assay: antiproliferation assay, NCI/ADR-RES; assay type: cell-based; conditions: Homo sapiens
Method: (§1) For the antiproliferation assay, NCI-H460 (large cell lung carcinoma) or M14 (amelanotic melanoma) cells were grown in RPMI-1640 with 10% FBS supplemented with L-glutamine and HEPES. Cells were seeded into 96-well plates at 5×10^2 to 5×10^4 cells/well and allowed to adhere overnight; the medium was then removed. A stock solution of test compound in DMSO was diluted in medium to generate a series of working solutions. Aliquots (100 μl) of the working solutions were then added to the appropriate test wells to expose cells to the final concentrations of compound in a total volume of 100 μl. Seven different concentrations were tested, with 2-5 wells per concentration. Camptothecin was used as a positive control; wells containing vehicle without compound were used as negative controls. Plates were kept for 72 h in a 37° C., 5% CO2 incubator. After incubation, viable cells were detected with the CELLTITER 96 AQueous Non-Radioactive Cell Proliferation Assay (Promega), and IC50 values were determined using GraphPad Prism 5 software.
Antiproliferation of several of the active compounds was tested against additional cell lines.
(§2) Compound 4 was tested for antiproliferation activity against several paclitaxel-resistant human cancer cell lines.

EKVX cells [1] = assay: antiproliferation assay, paclitaxel-resistant EKVX; assay type: cell-based; conditions: Homo sapiens
Method: as §1, §2

DU-145 cells = assay: NCI-60 panel antiproliferation, DU-145; assay type: cell-based, human; conditions: Homo sapiens, NCI 60-cell panel
Method: (§3) Bifidenone and Compound 37 were tested for antiproliferation activity against the NCI-60 panel of cancer cell lines. COMPARE analysis was then conducted to compare the activity “fingerprint” of bifidenone to those of known classes of compounds (Zhou, B.-N., Hoch, J. M., Johnson, R. K., Mattern, M. R., Eng, W.-K., Ma, J., Hecht, S. M., Newman, D. J., Kingston, D. G. I., 2000. Use of COMPARE Analysis to Discover New Natural Product Drugs: Isolation of Camptothecin and 9-Methoxycamptothecin from a New Source. Journal of Natural Products 63, 1273-1276.).

EKVX cells [2] = assay: NCI-60 panel antiproliferation, EKVX; assay type: cell-based, human; conditions: Homo sapiens, NCI 60-cell panel
Method: as §3

HT29 cells = assay: NCI-60 panel antiproliferation, HT29; assay type: cell-based, human; conditions: Homo sapiens, HT-29, NCI 60-cell panel
Method: as §3

NCI-H460 cells = assay: NCI-60 panel antiproliferation, NCI-H460; assay type: cell-based, human; conditions: Homo sapiens, NCI 60-cell panel
Method: as §3

NCI-H522 cells = assay: NCI-60 panel antiproliferation, NCI-H522; assay type: cell-based, human; conditions: Homo sapiens, NCI 60-cell panel
Method: as §3

RXF-393 cells = assay: NCI-60 panel antiproliferation, RXF-393; assay type: cell-based, human; conditions: Homo sapiens, NCI 60-cell panel
Method: as §3

SMILES | pIC50 (NCI/ADR-RES cells) | pIC50 (NCI/ADR-RES cells; paclitaxel-resistant NCI/ADR-RES) | pIC50 (EKVX cells [1]) | pIC50 (DU-145 cells) | pIC50 (EKVX cells [2]) | pIC50 (HT29 cells) | pIC50 (NCI-H460 cells) | pIC50 (NCI-H522 cells) | pIC50 (RXF-393 cells)
C=CC[C@H]1C[C@]2([C@H](C)Cc3cc(O)c(OC)cc3F)OCOC2=CC1=O (relative stereo) [Compound 4, 6-allyl-7a-(1-(2-fluoro-5-hydroxy-4-methoxyphenyl)propan-2-yl)-7,7a-dihydrobenzo[d][1,3]dioxol-5(6H)-one] | 8.04 | 8.05 | 8.15 |  |  |  |  |  | 
C=CC[C@H]1C[C@]2([C@@H](C)Cc3ccc(OC)c(F)c3)OCOC2=CC1=O [Compound 37, (6S,7aR)-6-allyl-7a-((S)-1-(3-fluoro-4-methoxyphenyl)propan-2-yl)-7,7a-dihydrobenzo[d][1,3]dioxol-5(6H)-one] |  |  |  | 6.73 | 6.83 | 7.06 | 7.31 | 7.21 | 7.02
